Laboratory results: patent US20120315248A1 (priority 2009, published 2012)

Columns and labels:
[1] = system: MxA, ISG-15, OAS-1, and ISG-56 mRNA; format: cell-based, human
human fibroblasts = format: cell-based

| Molecule | basal ISG mRNA levels in SW-R [1] | protection of fibroblasts from VSV (human fibroblasts) |
| --- | --- | --- |
| CCCC(CCC)C(=O)O [VPA, valproic acid] | reduced basal mRNA levels for three out of four ISGs |  |
| IFN-α |  | completely protect |
